Test results: US20240391862A1, “(1,4,5-TRISUBSTITUTED-1H-PYRAZOL-3-YL)OXY-2-ALKOXY ALKYL ACIDS AND THEIR DERIVATIVES, THEIR SALTS AND THEIR USE AS HERBICIDAL AGENTS” (Bayer AKtiengesellschaft, priority 2021, published 2024)

Legend:
AVEFA = assay: Post-emergence herbicidal effect, greenhouse pot test; type: in vivo, Avena fatua; settings: 320 g/ha, visual rating about 3 weeks after treatment; for pest or weed control at 320 g/ha: Avena fatua, 504 h, read-out: Post-emergence effect against AVEFA
Summary of the method: (§1)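 Weeds sown in sandy loam, greenhouse-grown 2–3 weeks, then sprayed at one-leaf stage with WP or EC formulations in water plus 0.5% additive at 600 l/ha. Rates 20 to 320 g/ha. Visual rating after about 3 weeks versus untreated controls (100% = plants dead, 0% = like control).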

DIGSA = assay: as above; type: in vivo, Digitaria sanguinalis; settings: visual rating about 3 weeks after treatment; for pest or weed control at 320 g/ha / Post-emergence effect against DIGSA: 320 g/ha
Summary of the method: as §1

VERPE = assay: as above; type: in vivo, Veronica persica
Summary of the method: as §1

VIOTR = assay: as above; type: in vivo, Viola tricolor; settings: Viola tricolor, 504 h, read-out: Post-emergence effect against VIOTR in %
Summary of the method: as §1

PHBPU = assay: as above; type: in vivo, Ipomoea purpurea
Summary of the method: as §1

POLCO = assay: as above; type: in vivo, Fallopia convolvulus
Summary of the method: as §1

KCHSC = assay: as above; type: in vivo; settings: 320 g/ha; for pest or weed control at 320 g/ha: 504 h, read-out: Post-emergence effect against KCHSC in %
Summary of the method: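 Visual rating of activity against untreated plants (100% = plants died, 0% = no effect), done about 3 weeks after treatment. Compounds applied at 20–320 g/ha as aqueous spray (600 l/ha, 0.5% additive) from WP or EC formulations onto one-leaf-stage plants grown in sandy loam under greenhouse conditions.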

ZEAMX = assay: Post-emergence herbicidal effect and crop plant compatibility, greenhouse pot test; type: in vivo, Zea mays; settings: one-leaf stage, rated visually after about 3 weeks vs untreated controls; for plant injury at 20 g/ha / plant injury at 80 g/ha: Zea mays, 504 h; for plant injury at 20 g/ha: read-out: Post-emergence effect at 20 g/ha against ZEAMX in %; for plant injury at 80 g/ha: read-out: Post-emergence effect at 80 g/ha against ZEAMX in %
Summary of the method: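 Greenhouse pot plants in sandy loam receive a one-leaf-stage spray at 20 to 320 g/ha. Activity is assessed visually around 3 weeks afterwards on a 0–100% scale, where 100% means the plants have died.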

ECHCG = assay: Post-emergence herbicidal effect, greenhouse pot test; type: in vivo, Echinochloa crus-galli; settings: for pest or weed control at 80 g/ha / pest or weed control at 320 g/ha: Echinochloa crus-galli, 504 h, read-out: Post-emergence effect against ECHCG in %
Summary of the method: as §1

SETVI = assay: as above; type: in vivo, Setaria viridis; settings: for pest or weed control at 320 g/ha / Post-emergence effect against SETVI in %: 320 g/ha
Summary of the method: as §1

ABUTH = assay: as above; type: in vivo, Abutilon theophrasti; settings: visual rating about 3 weeks after treatment; for pest or weed control at 320 g/ha / Post-emergence effect against ABUTH: 320 g/ha
Summary of the method: as §1

TRZAS = assay: Post-emergence herbicidal effect and crop plant compatibility, greenhouse pot test; type: in vivo, Triticum aestivum; settings: 20 g/ha, one-leaf stage, rated visually after about 3 weeks vs untreated controls; for percent crop injury (phytotoxicity) to wheat, post-emergence at 20 g/ha: Triticum aestivum, 504 h, read-out: Post-emergence effect at 20 g/ha against TRZAS in %
Excerpt: • ALOMY: Alopecurus myosuroides SETVI: Setaria viridis • AVEFA: Avena fatua POLCO: Fallopia convolvulus • AMARE: Amaranthus retroflexus ECHCG: Echinochloa crus-galli • LOLRJ: Lolium rigidum STEME: Stellaria media • VERPE: Veronica persica MATIN: Tripleurospermum inodorum • DIGSA: Digitaria sanguinalis ABUTH: Abutylon threophrasti • TRZAS: Triticum aestivum VIOTR: Viola tricolor • BRSNW: Brassica napus ZEAMX: Zea mays • PHBPU: Ipomoea purpurea GLXMA: Glycine max • ORYSA: Oryza sativa HORMU: Hordeum murinum
Seeds of monocotyledonous and dicotyledonous weeds and crop plants are placed in sandy loam in plastic or organic planting pots, covered with soil and cultivated in a greenhouse under controlled growth conditions. 2 to 3 weeks after sowing, the trial plants are treated at the one-leaf stage. The compounds of the invention, formulated in the form of wettable powders (WP) or as emulsion concentrates (EC), are then sprayed onto the green parts of the plants as aqueous suspension or emulsion with addition of 0.5% additive at a water application rate of 600 l/ha (converted). After the test plants have been kept in the greenhouse under optimum growth conditions for about 3 weeks, the activity of the preparations is rated visually in comparison to untreated controls. For example, 100% activity=the plants have died, 0% activity=like control plants.
Tables 20a to 38c below show the effects/crop compatibilities of selected compounds of the general formula (I) on various harmful plants at an application rate corresponding to 20 to 320 g/ha, which were obtained by the trial procedure specified above.

ALOMY = assay: Post-emergence herbicidal effect, greenhouse pot test; type: in vivo, Alopecurus myosuroides; settings: 320 g/ha, visual rating about 3 weeks after treatment
Summary of the method: as §1

MATIN = assay: as above; type: in vivo, Tripleurospermum inodorum; settings: 320 g/ha; for pest or weed control at 320 g/ha: Tripleurospermum inodorum, 504 h, read-out: Post-emergence effect against MATIN in %
Summary of the method: as §1

AMARE = assay: as above; type: in vivo, Amaranthus retroflexus; settings: 320 g/ha, visual rating about 3 weeks after treatment
Summary of the method: as §1

[1] = Digitaria sanguinalis, 504 h, read-out: Post-emergence effect against DIGSA
[2] = Veronica persica, 504 h, 320 g/ha, read-out: Post-emergence effect against VERPE in %
[3] = Ipomoea purpurea, 504 h, 320 g/ha, read-out: Post-emergence effect against PHBPU in %
[4] = Fallopia convolvulus, 504 h, 320 g/ha, read-out: Post-emergence effect against POLCO in %
[5] = Setaria viridis, 504 h, read-out: Post-emergence effect against SETVI in %
[6] = Abutilon theophrasti, 504 h, read-out: Post-emergence effect against ABUTH

Row | SMILES | pest or weed control at 320 g/ha (AVEFA) [%] | pest or weed control at 320 g/ha (DIGSA; [1]) [%] | pest or weed control at 320 g/ha (VERPE; [2]) [%] | pest or weed control at 320 g/ha (VIOTR) [%] | pest or weed control at 320 g/ha (PHBPU; [3]) [%] | pest or weed control at 320 g/ha (POLCO; [4]) [%] | pest or weed control at 320 g/ha (KCHSC) [%] | plant injury at 20 g/ha (ZEAMX; 20 g/ha) [%] | plant injury at 80 g/ha (ZEAMX; 80 g/ha) [%] | pest or weed control at 80 g/ha (ECHCG; 80 g/ha) [%] | pest or weed control at 320 g/ha (ECHCG; 320 g/ha) [%] | pest or weed control at 320 g/ha (SETVI; [5]) [%] | pest or weed control at 320 g/ha (ABUTH; [6]) [%] | percent crop injury (phytotoxicity) to wheat, post-emergence at 20 g/ha (TRZAS) [%] | Post-emergence effect against AVEFA (AVEFA) [%] | Post-emergence effect against DIGSA (DIGSA) [%] | Post-emergence effect against PHBPU in % (PHBPU; 320 g/ha) [%] | Post-emergence effect against ALOMY (ALOMY) [%] | Post-emergence effect against KCHSC in % (KCHSC) [%] | Post-emergence effect against ECHCG in % (ECHCG; 320 g/ha) [%] | other results
1 | COC(Oc1nn(-c2ncccc2F)c(-c2ccc(F)nc2)c1C1CC1)C(=O)O (stereo not drawn) [Example I-56] | 80 | 80 | 80 | 90 | 80 | 80 | 90 | 0 | 0 | 80 | 90 | 80 | 80 | 0 | – | – | – | – | – | – | Post-emergence effect at 320 g/ha against ZEAMX in % (ZEAMX; 320 g/ha): 20%
2 | CCOC(Oc1nn(-c2ccccc2F)c(-c2ccc(F)nc2)c1Br)C(=O)OCCC(=O)OC (single isomer, unassigned) [Example I-64, Methyl 3-{[(2R*)-2-{[4-bromo-1-(2-fluorophenyl)-5-(6-fluoropyridin-3-yl)-1H-pyrazol-3-yl]oxy}-2-ethoxyethanoyl]oxy}propanoate] | – | – | – | – | – | – | – | 20 | – | – | – | – | – | 10 | 90 | 80 | 90 | 90 | 90 | 90 | Post-emergence effect against VERPE in % (VERPE; 80 g/ha): 80%; Post-emergence effect against VERPE in % (VERPE; 320 g/ha): 80%; Post-emergence effect against PHBPU in % (PHBPU; 80 g/ha): 80%; Post-emergence effect against MATIN in % (MATIN): 80%; Post-emergence effect against ECHCG in % (ECHCG; 80 g/ha): 80%; Post-emergence effect against SETVI in % (SETVI): 90%; Post-emergence effect against ABUTH (ABUTH): 80%
3 | COC(Oc1nn(-c2ccccc2F)c(-c2ccc(F)nc2)c1C1CC1)C(=O)O (stereo not drawn) [Example I-69] | – | – | 80 | 90 | 80 | 80 | 80 | 0 | 0 | – | 90 | – | 90 | 0 | – | – | – | – | – | – | pest or weed control at 80 g/ha (POLCO; Fallopia convolvulus, 504 h, 80 g/ha, read-out: Post-emergence effect against POLCO in %): 80%; pest or weed control at 320 g/ha (MATIN): 80%
4 | COC(=O)CCOC(=O)C(OC)Oc1nn(-c2ncccc2F)c(-c2ccc(F)nc2)c1C1CC1 (single isomer, unassigned) [Example I-81] | – | – | – | – | – | – | – | – | – | – | – | – | – | – | 90 | 80 | 80 | 90 | 90 | 90 | Post-emergence effect against AMARE (AMARE): 80%; Post-emergence effect against POLCO in % (POLCO; 320 g/ha): 90%; Post-emergence effect at 20 g/ha against ZEAMX in % (ZEAMX; 20 g/ha): 0%; Post-emergence effect at 80 g/ha against ZEAMX in % (ZEAMX; 80 g/ha): 0%; Post-emergence effect against SETVI in % (SETVI): 90%; Post-emergence effect against ABUTH (ABUTH): 90%; Post-emergence effect at 20 g/ha against TRZAS in % (TRZAS): 0%
5 | CCOC(Oc1nn(-c2ccccc2F)c(-c2ccc(F)nc2)c1Br)C(=O)OCCC(=O)OC (single isomer, unassigned) [Example I-59, Methyl 3-{[(2RS)-2-{[4-bromo-1-(2-fluorophenyl)-5-(6-fluoropyridin-3-yl)-1H-pyrazol-3-yl]oxy}-2-ethoxyethanoyl]oxy}propanoate] | 80 | 90 | 80 | 90 | 90 | – | 80 | 20 | – | 90 | 90 | 90 | 90 | 0 | – | – | – | – | – | – | pest or weed control at 80 g/ha (DIGSA; Digitaria sanguinalis, 504 h, 80 g/ha, read-out: Post-emergence effect against DIGSA): 80%; pest or weed control at 80 g/ha (VERPE; Veronica persica, 504 h, 80 g/ha, read-out: Post-emergence effect against VERPE in %): 80%; pest or weed control at 80 g/ha (VIOTR; 80 g/ha): 90%; pest or weed control at 80 g/ha (PHBPU; Ipomoea purpurea, 504 h, 80 g/ha, read-out: Post-emergence effect against PHBPU in %): 90%; pest or weed control at 320 g/ha (ALOMY; Alopecurus myosuroides, 504 h, read-out: Post-emergence effect against ALOMY): 90%; pest or weed control at 320 g/ha (MATIN): 80%; pest or weed control at 80 g/ha (SETVI; Setaria viridis, 504 h, 80 g/ha, read-out: Post-emergence effect against SETVI in %): 80%; pest or weed control at 80 g/ha (ABUTH; Abutilon theophrasti, 504 h, 80 g/ha, read-out: Post-emergence effect against ABUTH): 90%
